Measured values reported in ChEMBL document CHEMBL1144769 (J Med Chem, 2008).
Calls of active or inactive are those of the source. The rule behind the calls is not given here.

Experiments:
[1] = target: T1, Prostaglandin G/H synthase 1 (Homo sapiens, UniProt P23219); test: Inhibition of COX1
[2] = target: T2, Prostaglandin G/H synthase 2 (Homo sapiens, UniProt P35354); test: Inhibition of COX2
T2 sequence (P35354 whole entry): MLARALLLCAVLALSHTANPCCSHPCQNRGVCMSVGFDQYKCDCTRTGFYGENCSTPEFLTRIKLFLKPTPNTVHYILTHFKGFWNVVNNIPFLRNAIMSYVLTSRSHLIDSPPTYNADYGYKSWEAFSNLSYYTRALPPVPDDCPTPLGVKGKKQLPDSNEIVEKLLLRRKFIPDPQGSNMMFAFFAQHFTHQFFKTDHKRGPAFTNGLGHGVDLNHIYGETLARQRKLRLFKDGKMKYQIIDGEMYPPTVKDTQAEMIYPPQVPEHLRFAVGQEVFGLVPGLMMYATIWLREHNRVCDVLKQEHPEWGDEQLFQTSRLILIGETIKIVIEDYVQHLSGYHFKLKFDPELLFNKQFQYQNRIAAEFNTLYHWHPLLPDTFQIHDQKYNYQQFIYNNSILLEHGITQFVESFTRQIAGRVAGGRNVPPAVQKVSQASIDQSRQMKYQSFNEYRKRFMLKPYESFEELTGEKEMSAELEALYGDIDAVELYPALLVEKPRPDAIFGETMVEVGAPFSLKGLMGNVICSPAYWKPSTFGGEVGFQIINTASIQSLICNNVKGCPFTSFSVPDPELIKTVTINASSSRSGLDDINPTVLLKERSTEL

[3] = target: T1, Prostaglandin G/H synthase 1; test: Inhibition of COX1 at 100 uM
Rattus norvegicus [4] = test: Analgesic activity in Sprague-Dawley rat assessed as reduction in formalin-induced pain at 30 mg/kg, po; assay type: functional, organism-based; design: dose 30 mg/kg
Mus musculus [5] = test: Analgesic activity in ICR mouse assessed as reduction in number of acetic acid-induced writhing at 30 mg/kg, po after 10 mins; assay type: functional, organism-based; design: dose 30 mg/kg
Mus musculus [6] = test: Acute toxicity in ICR mouse upto 300 mg/kg, po upto 14 days; assay type: organism-based; design: dose 300 mg/kg, route oral; conditions: in vivo, 336 h
Rattus norvegicus [7] = test: Induction of gastric ulcer formation in Sprague-Dawley rat at 30 mg/kg, po administered daily for 1 week; assay type: organism-based, Stomach; design: dose 30 mg/kg, route oral; conditions: in vivo, 168 h
[8] = Cmax in Sprague-Dawley rat at 30 mg/kg, po; assay type: ADME, organism-based; design: dose 30 mg/kg, route oral; conditions: in vivo
Mus musculus [9] = test: Analgesic activity in ICR mouse assessed as reduction in number of acetic acid-induced writhing at 10 mg/kg, po after 10 mins; assay type: functional, organism-based; design: dose 10 mg/kg
Rattus norvegicus [10] = test: Induction of gastric ulcer formation in Sprague-Dawley rat at 30 mg/kg, po after 5 hrs; assay type: organism-based, Stomach; design: dose 30 mg/kg, route oral; conditions: in vivo
Rattus norvegicus [11] = test: Induction of gastric ulcer formation in Sprague-Dawley rat at 10 mg/kg, po after 5 hrs; assay type: organism-based, Stomach; design: dose 10 mg/kg, route oral; conditions: in vivo

T1 sequence (P23219 whole entry): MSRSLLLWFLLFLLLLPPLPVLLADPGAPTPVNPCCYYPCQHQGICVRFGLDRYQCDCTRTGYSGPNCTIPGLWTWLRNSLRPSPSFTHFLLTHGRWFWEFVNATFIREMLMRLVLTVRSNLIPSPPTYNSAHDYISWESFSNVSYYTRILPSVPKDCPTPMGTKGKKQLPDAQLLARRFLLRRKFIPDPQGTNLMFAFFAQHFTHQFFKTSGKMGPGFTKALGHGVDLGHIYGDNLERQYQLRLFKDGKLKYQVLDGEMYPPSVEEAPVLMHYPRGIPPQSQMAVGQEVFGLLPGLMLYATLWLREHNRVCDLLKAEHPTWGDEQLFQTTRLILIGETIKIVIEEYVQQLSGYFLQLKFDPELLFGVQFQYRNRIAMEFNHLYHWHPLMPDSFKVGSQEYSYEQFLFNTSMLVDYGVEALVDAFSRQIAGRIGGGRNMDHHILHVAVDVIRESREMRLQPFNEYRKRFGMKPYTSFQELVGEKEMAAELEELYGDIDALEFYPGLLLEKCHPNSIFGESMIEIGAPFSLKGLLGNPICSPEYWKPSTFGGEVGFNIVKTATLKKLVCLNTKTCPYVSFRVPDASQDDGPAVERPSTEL

SMILES	IC50 [1]	IC50 [2]	inhibition [3]	further results
Nc1ccnc(NC(=O)c2cccc(C(F)(F)F)c2)c1	> 100 µM	> 100 µM		
Cc1ccc(C(=O)Nc2ccc(N)cc2)cc1			53%	
Nc1ccc(C(=O)Nc2ccc(C(F)(F)F)cn2)cc1	10 µM	> 100 µM		
Nc1ccc(C(=O)Nc2ccccc2C(F)(F)F)cc1	> 100 µM	> 100 µM		
Cc1ccc(NC(=O)c2ccc(Cl)cc2)cc1			23%	
Nc1ccc(C(=O)Nc2ccc(C(F)(F)F)cc2)cc1	30 µM	> 100 µM	71%	
Nc1ccc(C(=O)Nc2ccc(C(F)(F)F)cc2)nc1	> 100 µM	> 100 µM		
Nc1cccc(NC(=O)c2ccccc2C(F)(F)F)c1	94 µM	> 100 µM		
CCN(C(=O)c1ccccc1N)c1ccccc1			5%	
Nc1ccccc1C(=O)Nc1ccc(Cl)cc1			52%	
Nc1ccccc1C(=O)Nc1cccc(C(F)(F)F)c1	10 µM	> 100 µM	90%	
Cc1cccc(NC(=O)c2ccccc2N)c1			67%	
CCN(C(=O)c1ccccc1N)c1ccc(Cl)cc1			23%	
Nc1cccc(C(=O)Nc2ccccc2C(F)(F)F)c1	> 100 µM	> 100 µM		
Nc1ccccc1C(=O)Nc1ccccc1C(F)(F)F	> 100 µM	> 100 µM	32%	
Nc1ccc(NC(=O)c2ccc(Cl)cc2)cc1			49%	
Nc1ccc(NC(=O)c2ccc(C(F)(F)F)cc2)cc1	29 µM	> 100 µM	63%	
Nc1cccc(C(=O)Nc2ccc(C(F)(F)F)cc2)c1	19 µM	> 100 µM	70%	
Cc1ccc(NC(=O)c2ccccc2N)cc1			57%	
Nc1ccnc(NC(=O)c2ccc(C(F)(F)F)cc2)c1	> 100 µM	> 100 µM		
O=C(Nc1ccc(C(F)(F)F)cc1)c1ccccc1[N+](=O)[O-]			31%	
Nc1ccc(NC(=O)c2cccc(C(F)(F)F)c2)nc1	12 µM	> 100 µM		
Nc1ccc(NC(=O)c2cccc(C(F)(F)F)c2)cc1	62 µM	> 100 µM		
Nc1ccc(C(=O)Nc2ccc(Cl)cc2)cc1			53%	

SMILES	IC50 [1]	IC50 [2]	inhibition [3]	further results
Nc1cccnc1NC(=O)c1cccc(C(F)(F)F)c1	> 100 µM	> 100 µM		
Nc1ccc(NC(=O)c2ccc(C(F)(F)F)cc2)nc1	0.8 µM	210 µM		Activity (Rattus norvegicus [4]): Active; Activity (Mus musculus [5]): Active; Activity (Mus musculus [6]): Non-toxic; Activity (Rattus norvegicus [7]): Not Active; Cmax [8]: 12 µM; Activity (Mus musculus [9]): Active
Nc1cccc(C(=O)Nc2cccc(C(F)(F)F)c2)c1	> 100 µM	> 100 µM		
Cc1ccc(NC(=O)c2ccc(N)cc2)cc1			56%	
Nc1ccccc1NC(=O)c1cccc(C(F)(F)F)c1	72 µM	> 100 µM		
CC(=O)Oc1ccccc1C(=O)O [ASPIRIN]				Activity (Rattus norvegicus [10]): Active
Nc1cccnc1NC(=O)c1ccc(C(F)(F)F)cc1	> 100 µM	> 100 µM		
Nc1cccc(NC(=O)c2cccc(C(F)(F)F)c2)c1	7.2 µM	> 100 µM		
Cc1ccccc1NC(=O)c1ccccc1N			53%	
Nc1ccccc1C(=O)Nc1ccccc1			64%	
Nc1ccccc1NC(=O)c1ccccc1C(F)(F)F	> 100 µM	> 100 µM		
COc1ccc(NC(=O)c2ccc(Cl)cc2)cc1			35%	
Nc1ccc(NC(=O)c2ccccc2C(F)(F)F)cc1	> 100 µM	> 100 µM		
O=C(Nc1ccc(C(F)(F)F)cc1)c1ccc([N+](=O)[O-])cc1			0%	
Nc1ccccc1C(=O)Nc1ccc(C(F)(F)F)cc1	16 µM	> 100 µM	68%	
Nc1ccc(C(=O)Nc2cccc(C(F)(F)F)c2)cc1	> 100 µM	> 100 µM		
O=C(Nc1ccc(C(F)(F)F)cc1)c1cccc([N+](=O)[O-])c1			13%	
COc1ccc(-c2nc(C(=O)N3CCN(C)CC3)sc2-c2ccc(OC)cc2)cc1 [FR-122047]	0.028 µM	65 µM		
Nc1ccc(NC(=O)c2ccccc2)cc1			54%	
Nc1ccc(C(=O)Nc2ccccc2)cc1			40%	
Nc1ccccc1NC(=O)c1ccc(C(F)(F)F)cc1	88 µM	> 100 µM	53%	
Nc1cccc(NC(=O)c2ccc(C(F)(F)F)cc2)c1	14 µM	> 100 µM	76%	
COc1ccc2c(c1)c(CC(=O)O)c(C)n2C(=O)c1ccc(Cl)cc1 [INDOMETHACIN]				Activity (Mus musculus [9]): Active; Activity (Rattus norvegicus [11]): Active
